# Data from patent US20250262189A1, “TREATMENT OF DISEASES ASSOCIATED WITH REDUCTIVE STRESS” (RDiscovery, LLC, priority 2022, published 2025).
# Entries after “also recorded” stand apart in the source; their conditions may differ.
# Tested on: GDF-15 expression in HUVEC cells
# Assay: GDF-15 mRNA expression by RT-qPCR in HUVEC cells under AZT-induced reductive stress
# Type: cell-based, Human
# Details: AZT 5 μM with ZLN-005 1 μM, harvested Day 6, two sets of runs (FIG. 1, FIG. 2), AZT vs. AZT/ZLN P=0.016 (FIG. 2)
# Method: A study was performed to evaluate the ability of ZLN-005 to mitigate the effects of reductive stress induced by azidothymidine (AZT), which is believed to inhibit mitochondrial respiratory chain complex I and II.
# Human human umbilical vein endothelial (HUVEC) cells were cultured in HuMedia-EG2 medium (Kurabo) at 5×10^4 cells per well in a six-well plate. Medium was supplemented with AZT (Sigma) at 5 μM, with or without ZLN-005 at 1 μM. Cells cultured without AZT and without ZLN-005 were used as non-treated control (NTC)). Medium was changed on days 2 and 4. Cells were harvested on Day 6 for analysis of GDF-15 mRNA expression by quantitative reverse transcription PCR (RT-qPCR).
smiles,measurement,value
"CC(C)(C)c1ccc(-c2nc3ccccc3[nH]2)cc1 [ZLN-005, 2-(4-tert-butylphenyl)-1H-benzimidazole]",GDF-15 expression compared to cells treated with AZT but not ZLN-005,reduced GDF-15 expression; also recorded: decreases expression of reductive stress biomarker GDF-15
